Laboratory results taken from patent publication US20190134128A1, “METHOD FOR PRODUCING CELASTROL AND PENTACYCLIC TRITERPENE DERIVATIVES” (PIERRE FABRE DERMO-COSMETIQUE, priority 2016, published 2019).
≈ marks a conversion by molar mass, not a printed value.

Tests used:
[1] = test system: Propionibacterium acnes (CIP 53117T); assay: Antimicrobial activity (MIC/MBC, micro-method in liquid medium) against Propionibacterium acnes; type: cell-based; details: 24 h
Protocol: Activity is evaluated on Propionibacterium acnes (CIP 53117T), with an inoculation suspension at 10^8 CFU/mL. The maintenance medium is Columbia agar+5% sheep blood, with incubation for 24 hours at 36±1° C. under anaerobic conditions. The test medium is composed of Mueller Hinton broth+10% foetal calf serum (FCS) and Columbia agar+5% sheep blood, with incubation for 24 h at 36±1° C. under anaerobic conditions. The determination of minimum inhibitory concentrations (MICs) is performed by micro-method in liquid medium. 100 μL of liquid culture medium is deposited in each well of a sterile 96-well microplate. 100 μL of the product to be tested is deposited in the first well of a row. One-half dilutions are then made from wells 1 to 10. Propionibacterium acnes test suspensions are prepared extemporaneously in tryptone salt. 100 μL is deposited in each well of a second microplate, except column 11. All of the first microplate is inoculated, using a Denley multipoint inoculator, from the second microplate. After incubation, MICs are defined as the highest dilution with no visible growth. Columns 11 and 12 serve as negative and positive growth control, respectively. Two references were tested in parallel. The determination of minimum bactericidal concentrations (MBCs) is performed by subculturing MIC microplates on agar medium using the Denley multipoint inoculator. After incubation, MBC is defined as the highest dilution with no visible growth. All tests are performed in duplicate.

S. aureus CIP 4.83 = assay: Antimicrobial activity (MIC/MBC) against Staphylococcus aureus; type: cell-based
NFκB = assay: Inhibitory activity against NFκB in HaCaT keratinocytes stimulated with TNF-alpha; type: cell-based, human; details: 2 μM, TNF-alpha 0.3 ng/mL
Excerpt: The transcription factor NFκB controls the expression of a large number of genes involved in regulation of the inflammatory response. […] Certain pro-inflammatory stimuli such as TNF-alpha and IL-1-beta lead to the activation of NFκB, i.e. its nuclear translocation. Once in the nucleus, NFκB will induce the transcription of pro-inflammatory genes encoding cytokines, chemokines, adhesion molecules, growth factors and inducible enzymes.
The anti-inflammatory activities of the extracts obtained from the suspensions contained in Erlenmeyer flasks E1, E2, E3 and E6 of example 8 were evaluated in vitro on human HaCaT keratinocytes according to the method described by Albanesi et al. The extracts, weighed in dry weight, were taken up in a buffer and introduced into a HaCaT cell culture solution in equivalent final concentrations (ng/mL) for each extract and incubated for 1 hour. NFκB expression is then induced by stimulation with TNF-alpha (0.3 ng/mL).

[2] = Propionibacterium acnes, anaerobic
[3] = S. aureus CIP 4.83, 36° C., 24 h
[4] = Staphylococcus aureus, CIP4, 24 h

Row | Structure (SMILES) | MBC [1, 2] [µg/mL] | MIC [1, 2] [µg/mL] | MBC (S. aureus CIP 4.83; [3]) [µg/mL] | MIC (S. aureus CIP 4.83; [3]) [µg/mL] | MBC ([1]; Cutibacterium acnes) [µg/mL] | MIC ([1]; Cutibacterium acnes) [µg/mL] | MBC (S. aureus CIP 4.83; [4]) [µg/mL] | MIC (S. aureus CIP 4.83; [4]) [µg/mL] | % inhibition of NFκB expression with respect to induction of TNF-alpha (NFκB) | % inhibition of NFκB expression with respect to induction of TNF-alpha (NFκB; listed as Dex) [%]
1 | C[S+](C)[O-] [DMSO] | 5 (≈ 64 µM) | 5 (≈ 64 µM) | >5 | >5 |  |  |  |  |  | 
2 | CC1=C(O)C(=O)C=C2C1=CC=C1[C@@]2(C)CC[C@@]2(C)[C@@H]3C[C@](C)(C(=O)O)CC[C@]3(C)CC[C@]12C [Celastrol, celastrol] |  |  |  |  | 1.17 (≈ 2.6 µM) | 0.59 (≈ 1.31 µM) | 0.59 (≈ 1.31 µM) | 0.29 (≈ 0.644 µM) |  | 
3 | CC1=C(O)C(=O)C=C2C1=CC=C1[C@@]2(C)CC[C@@]2(C)C3C[C@@H](C)C(=O)C[C@]3(C)CC[C@]12C (stereo partly drawn) [Tingenin A, tingenin A] |  |  |  |  | 2.34 (≈ 5.56 µM) | 2.34 (≈ 5.56 µM) | 2.34 (≈ 5.56 µM) | 1.17 to 2.34 (≈ 2.78 to 5.56 µM) |  | 
4 | C[C@@H]1C[C@H]2[C@@H]3CCC4=CC(=O)C=C[C@]4(C)[C@@]3(F)[C@@H](O)C[C@]2(C)[C@@]1(O)C(=O)CO [Dexamethasone] |  |  |  |  |  |  |  |  | more than 40% | 42.5
5 | CC1=C(O)C(=O)C=C2C1=CC=C1[C@@]2(C)CC[C@@]2(C)[C@@H]3C[C@@H](C)C(=O)[C@@H](O)[C@]3(C)CC[C@]12C [Tingenin B, tingenin B] |  |  |  |  | 1.17 (≈ 2.68 µM) | 1.17 (≈ 2.68 µM) | 1.17 (≈ 2.68 µM) | 0.59 (≈ 1.35 µM) |  | 
